The values that follow are results of earlier work, collected in patent US6558656B2, “Oral and topical compositions and methods related thereto in the treatment of acne” (priority 2000, dated 2003).

Read-outs that look alike come from different tables or passages of the source. Where no end group is shown, it is not given here.

The subject of data set [1] is BCO, Candida, or Cryptococcus. The following applies: immunosuppressed mice infected with BCO.
The test system of data set [2] is C. albicans, Listeria monocytogenes, Pseudomonas aeruginosa, and Serratia marescens. The following applies: 5-fluorouracil (5FU)- or morphine-immunosuppressed mice, injection.
Data set [3] has as its system Candida albicans. The following applies: mice, injection.
For data set [4], the system named is Newcastle disease virus. The following applies: mice infected with the Newcastle disease virus.
Data set [5] relates to acne.

For “thymosin α1 (SDAAVDTSSEITTKDLKEKKEVVEEAEN; not fully specified (N-terminus); ends and bridges not checked; UniProt P06454 2-29, looked up) [Tα1, an immunomodulatory peptide of 28 amino acids]”, the survival rate entry in data set [1] is on record as “increased survival rate”. Moreover, in data set [2], the “protection against opportunistic infections” value is recorded as “protect”. For the same compound, the “resistance to infection with Candida albicans” value in data set [3] is given as “increased resistance”. In addition, the “amount of interferon (IFN) produced” value in data set [4] is given as “significant rise”.
`CC1=C(/C=C/C(C)=C/C=C/C(C)=C/CO)C(C)(C)CCC1` [micellized Vitamin A, Vitamin A]: the toxicity entry in data set [5] (in vivo) is “known toxicity”. In data set [5] (very high doses), the effectiveness in acne result is reported as “moderately effective”.
`CC1=C(/C=C/C(C)=C/C=C/C(C)=C\C(=O)O)C(C)(C)CCC1` [isotretinoin]: in data set [5] (administered orally), the sebum production entry is recorded as “decreasing sebum production”. Besides, the side effects result in data set [5] (in vivo, po) is recorded as “potential to induce sever birth defects”. The effectiveness in acne entry in data set [5] (oral administration) is listed as “proven effective in the vast majority of cases”.
`CC(C)(CO)[C@@H](O)C(=O)NCCC(=O)O` [Pantothenic acid]: the effectiveness in acne result in data set [5] (dosage level of 10 grams per day) was “effective”.
With `[Zn]` [Zinc], the effectiveness in acne result in data set [5] (dosage levels of 100-300 mg per day) was “moderately effective”.
